Strand notation (5' to 3'): a small letter for the sugar, then the base; units joined by * are phosphorothioate-linked, units joined directly phosphodiester-linked; [ ] holds rarer units or linkages, { } end groups; capitals alone tell only the bases. e = 2'-O-(2-methoxyethyl) (MOE); [5mC] = 5-methylcytosine; d = 2'-deoxy (DNA)

Usually % Inhibition stands for the drop in the measured response relative to a control, in per cent.

Type in all cases: cell-based
The subject of data set [1] is human Factor 7 mRNA. Briefly: Dose-dependent antisense inhibition of human Factor 7 in HepB3 cells, lipofectin. To be noted: HepB3 cells, approx. 16 hours (Table 14). Summed up:
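HepB3 cells (4,000/well) lipofectin-transfected with antisense oligonucleotide at 3.125 or 6.25 up to 100 nM for ~16 h. Factor 7 mRNA measured by real-time RT-PCR with primer probe set RTS 2927, adjusted to RIBOGREEN total RNA; expressed as percent inhibition versus untreated control cells.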

Data set [2] deals with human Factor 7 mRNA. Description: Dose-dependent antisense inhibition of human Factor 7 in HepB3 cells, electroporation. As to the method: (§1) The gapmers were also transfected via electroporation and their dose-dependent inhibition of human Factor 7 mRNA was measured. Cells were plated at a density of 20,000 cells per well and transfected via electroporation with 3.125 μM, 6.25 μM, 12.5 μM, 25 μM, 50 μM, and 100 μM concentrations of antisense oligonucleotide, as specified in Table 15. After a treatment period of approximately 16 hours, RNA was isolated from the cells and Factor 7 mRNA levels were measured by quantitative real-time PCR. Human Factor 7 primer probe set RTS 2927 was used to measure mRNA levels. Factor 7 mRNA levels were adjusted according to total RNA content, as measured by RIBOGREEN®. Results are presented as percent inhibition of Factor 7, relative to untreated control cells.
as §1, with “Cells were” for “The gapmers were also transfected via electroporation and their dose-dependent inhibition of human Factor 7 mRNA was measured. Cells were”, “in […]. After a” for “in Table 15. After a”, “cells and human Factor 7” for “cells and Factor 7”

In data set [3] the test system is human Factor 7 mRNA. Description: Antisense inhibition of human Factor 7 mRNA in HepB3 cells, 50 nM antisense oligonucleotide, lipofectin. To be noted: for % Inhibition of human Factor 7 mRNA levels: gapmers targeted to nucleobases 4868 to 4899 of SEQ ID NO: 1, Table 8. Summed up:
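HepB3 cells were transfected by lipofectin with 50 nM antisense oligonucleotide and harvested after about 24 h. Factor 7 mRNA was measured by real-time RT-PCR (primer probe set RTS 2927 in some runs), normalized to RIBOGREEN total RNA, and reported as percent inhibition versus untreated control.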

[4] abbreviates: 3.125 μM, approx. 16 hours (Table 15, Example 7).
Where [5] appears, read: 3.125 μM, approx. 16 hours (Table 16, Example 8 confirmation).
Where [6] appears, read: 6.25 μM, approx. 16 hours (Table 15, Example 7).
Where [7] appears, read: 6.25 μM, approx. 16 hours (Table 16, Example 8 confirmation).
Setting [8] is: 12.5 μM, approx. 16 hours (Table 15, Example 7).
Setting [9] is: 12.5 μM, approx. 16 hours (Table 16, Example 8 confirmation).
Setting [10] is: 25 μM, approx. 16 hours (Table 15, Example 7).
The mark [11] stands for this setting: 25 μM, approx. 16 hours (Table 16, Example 8 confirmation).
Where [12] appears, read: 50 μM, approx. 16 hours (Table 15, Example 7).
Setting [13] is: 50 μM, approx. 16 hours (Table 16, Example 8 confirmation).
The mark [14] stands for this setting: 100 μM, approx. 16 hours (Table 15, Example 7).
Setting [15] is: 100 μM, approx. 16 hours (Table 16, Example 8 confirmation).

“422183 (antisense eG*e[5mC]*eG*d[5mC]*d[5mC]*dA*d[5mC]*d[5mC]*d[5mC]*dG*d[5mC]*d[5mC]*dG*dG*d[5mC]*dT*d[5mC]*eT*eG*e[5mC]) [compound 422183]”: the “percent inhibition of Factor 7 mRNA, relative to untreated control cells” value in the data set on human Factor 7 mRNA [1] (3.125 nM) came out at 28%; with human Factor 7 mRNA [1] (12.5 nM), 56%; with human Factor 7 mRNA [1] (25 nM), 78%; in the data set on human Factor 7 mRNA [1] (50 nM) it was 84%; in the data set on human Factor 7 mRNA [1] (100 nM), 88%; with human Factor 7 mRNA [1], 37%. Moreover, the “percent inhibition of Factor 7 mRNA, relative to untreated control cells” value came out at 16% with human Factor 7 mRNA [2] (setting [4]); 2% in the data set on human Factor 7 mRNA [2] (setting [5]); 28% with human Factor 7 mRNA [2] (setting [6]); 3% in the data set with human Factor 7 mRNA [2] (setting [7]); 37% in the data set on human Factor 7 mRNA [2] (setting [8]); 24% in the data set with human Factor 7 mRNA [2] (setting [9]). The “percent inhibition of Factor 7 mRNA, relative to untreated control cells” value in the data set with human Factor 7 mRNA [2] (setting [10]) was found to be 44%; in the data set with human Factor 7 mRNA [2] (setting [11]), 50%; in the data set with human Factor 7 mRNA [2] (setting [12]) it was 59%; with human Factor 7 mRNA [2] (setting [13]) it was 64%; in the data set on human Factor 7 mRNA [2] (setting [14]), 71%; in the data set on human Factor 7 mRNA [2] (setting [15]), 71%. For the same substance, in the data set with human Factor 7 mRNA [3] (oligonucleotides targeted to nucleobases 13760 to 13789 of SEQ ID NO: 1 (Table 10)), the “% Inhibition (human Factor 7 mRNA levels)” value was 79%.

For “422292 (antisense eG*eT*dT*d[5mC]*dT*dG*d[5mC]*dA*dG*dG*dA*dG*d[5mC]*dG*dG*e[5mC]*e[5mC]*eT*eA*eA) [compound 422292]”, the “percent inhibition of Factor 7 mRNA, relative to untreated control cells” value in the data set on human Factor 7 mRNA [1] (3.125 nM) is recorded as 13%; with human Factor 7 mRNA [1] (12.5 nM), 44%; with human Factor 7 mRNA [1] (25 nM) it was 63%; in the data set with human Factor 7 mRNA [1] (50 nM), 81%; in the data set with human Factor 7 mRNA [1] (100 nM) it was 83%; in the data set on human Factor 7 mRNA [1] it was 21%. The “percent inhibition of Factor 7 mRNA, relative to untreated control cells” value with human Factor 7 mRNA [2] (setting [4]) was 36%; in the data set with human Factor 7 mRNA [2] (setting [5]) it was 31%; in the data set on human Factor 7 mRNA [2] (setting [6]), 25%; in the data set with human Factor 7 mRNA [2] (setting [7]) it was 40%; with human Factor 7 mRNA [2] (setting [8]), 47%; in the data set with human Factor 7 mRNA [2] (setting [9]), 68%. The “percent inhibition of Factor 7 mRNA, relative to untreated control cells” value is given as 59% with human Factor 7 mRNA [2] (setting [10]); 75% with human Factor 7 mRNA [2] (setting [11]); 75% in the data set with human Factor 7 mRNA [2] (setting [12]); 82% in the data set on human Factor 7 mRNA [2] (setting [13]); 86% in the data set on human Factor 7 mRNA [2] (setting [14]); 83% in the data set on human Factor 7 mRNA [2] (setting [15]). In addition, the “% Inhibition of human Factor 7 mRNA levels” value in the data set with human Factor 7 mRNA [3] turned out to be 75%.

With “422086 (antisense eT*eG*e[5mC]*eA*eT*dG*dG*dT*dG*dA*dT*dG*d[5mC]*dT*dT*e[5mC]*eT*eG*eA*eA) [compound 422086]”, the “percent inhibition of Factor 7 mRNA, relative to untreated control cells” value in the data set on human Factor 7 mRNA [1] (3.125 nM) is 8%; in the data set on human Factor 7 mRNA [1] (12.5 nM) it was 46%; with human Factor 7 mRNA [1] (25 nM), 65%; in the data set on human Factor 7 mRNA [1] (50 nM) it was 83%; in the data set on human Factor 7 mRNA [1] (100 nM) it was 90%; with human Factor 7 mRNA [1], 26%. Also, the “percent inhibition of Factor 7 mRNA, relative to untreated control cells” value with human Factor 7 mRNA [2] (setting [4]) came to 20%; with human Factor 7 mRNA [2] (setting [5]), 25%; with human Factor 7 mRNA [2] (setting [6]) it was 34%; with human Factor 7 mRNA [2] (setting [7]), 48%; in the data set on human Factor 7 mRNA [2] (setting [8]), 44%; with human Factor 7 mRNA [2] (setting [9]), 74%. The “percent inhibition of Factor 7 mRNA, relative to untreated control cells” value in the data set with human Factor 7 mRNA [2] (setting [10]) turned out to be 63%; in the data set with human Factor 7 mRNA [2] (setting [11]) it was 82%; with human Factor 7 mRNA [2] (setting [12]) it was 75%; in the data set on human Factor 7 mRNA [2] (setting [13]), 86%; with human Factor 7 mRNA [2] (setting [14]) it was 84%; with human Factor 7 mRNA [2] (setting [15]) it was 90%. Moreover, the “% Inhibition” value in the data set on human Factor 7 mRNA [3] (Table 13 (microwalk), 50 nM, lipofectin, approximately 24 hours) was determined as 81%.

“422295 (antisense e[5mC]*eG*dA*dG*dT*dT*d[5mC]*dT*dG*d[5mC]*dA*dG*dG*dA*dG*e[5mC]*eG*eG*e[5mC]*e[5mC]) [compound 422295]”: the “percent inhibition of Factor 7 mRNA, relative to untreated control cells” value in the data set with human Factor 7 mRNA [1] (3.125 nM) is listed as 17%; in the data set on human Factor 7 mRNA [1] (12.5 nM) it was 44%; in the data set on human Factor 7 mRNA [1] (25 nM) it was 64%; in the data set with human Factor 7 mRNA [1] (50 nM), 80%; in the data set with human Factor 7 mRNA [1] (100 nM) it was 85%; in the data set on human Factor 7 mRNA [1] it was 22%. The “percent inhibition of Factor 7 mRNA, relative to untreated control cells” value with human Factor 7 mRNA [2] (setting [4]) came to 10%; with human Factor 7 mRNA [2] (setting [6]), 8%; in the data set with human Factor 7 mRNA [2] (setting [8]) it was 37%; in the data set with human Factor 7 mRNA [2] (setting [10]), 58%; with human Factor 7 mRNA [2] (setting [12]), 68%; in the data set on human Factor 7 mRNA [2] (setting [14]) it was 80%. Moreover, in the data set on human Factor 7 mRNA [3], the “% Inhibition of human Factor 7 mRNA levels” value worked out at 74%.

Turning to “422140 (antisense eG*eT*eT*e[5mC]*eT*dG*d[5mC]*dA*dG*dG*dA*dG*d[5mC]*dG*dG*e[5mC]*e[5mC]*eT*eA*eA) [compound 422140]”, the “percent inhibition of Factor 7 mRNA, relative to untreated control cells” value amounted to 18% in the data set with human Factor 7 mRNA [1] (3.125 nM); 49% in the data set with human Factor 7 mRNA [1] (12.5 nM); 64% in the data set on human Factor 7 mRNA [1] (25 nM); 74% with human Factor 7 mRNA [1] (50 nM); 74% in the data set with human Factor 7 mRNA [1] (100 nM); 35% with human Factor 7 mRNA [1]. Besides, the “percent inhibition of Factor 7 mRNA, relative to untreated control cells” value is 29% in the data set with human Factor 7 mRNA [2] (setting [4]); 34% with human Factor 7 mRNA [2] (setting [6]); 51% with human Factor 7 mRNA [2] (setting [8]); 64% in the data set with human Factor 7 mRNA [2] (setting [10]); 69% in the data set on human Factor 7 mRNA [2] (setting [12]); 77% with human Factor 7 mRNA [2] (setting [14]). Moreover, the “% Inhibition of human Factor 7 mRNA levels” value in the data set on human Factor 7 mRNA [3] came out at 74%.

(Values after patent US9029337B2, “Modulation of factor 7 expression” (Isis Pharmaceuticals, Inc., priority 2007, dated 2015).)
